Results from patent US20160114062A1, “TREATMENT OF IMMUNE, INFLAMMATORY AND DEGENERATIVE ARTHRITIDES WITH TIN-117m” (RHEUMCO LLC, priority 2013, published 2016).
Where “and” joins values, the source holds several entries; their conditions need not be identical. Identical values can stand only once.

Key:
[1] = Biodistribution, 2nd study (HSA Sn-117m annexin) in collagen-induced arthritic rats; format: in vivo, Rat; conditions: dose 50 (mCi), at sacrifice Day 14
Method: (§1) In order to test the efficacy of the present invention, a standard arthritic rat model was employed. Specifically, rodents were injected with collagen, which induced a reaction similar to rheumatoid arthritis. […] Two different studies were conducted.
(§2) At around day 14, the animals were sacrificed and tissues sent for histological analyses.

[2] = test system: standard arthritic rat model (collagen induced rheumatoid arthritis-like); assay: Histopathology of knees, 2nd study (HSA Sn-117m annexin); format: in vivo; conditions: for Bone Resorption Score / Cartilage Damage Score / Inflammation Score / Pannus Score: score 0-5, 0 = normal, 5 = severe
Method: as §1, §2

[3] = L knee (injected), ~50 uCi into L synovium
[4] = R knee, ~50 uCi into L synovium
[5] = mean of all animals, both knees, both routes, score 0-5

Sn-117m Annexin: High specific activity tin-117m attached to annexin V through an aminobenzyl DOTA linker
Right Leg (% ID) ([1]; L Synovium injection): 0.1 % ID
Left leg (% ID) ([1]; Retro-orbital injection): 0.1 % ID
Right Leg (% ID) ([1]; Retro-orbital injection): 0.1 % ID
Summed Histopathology Scores [2, 3]: 9
Bone Resorption Score [2, 3]: 1
Cartilage Damage Score [2, 3]: 2
Inflammation Score [2, 3]: 5
Pannus Score [2, 3]: 1
Summed Histopathology Scores ([2]; L knee, ~50 uCi retro-orbital): 8 and 4
Cartilage Damage Score ([2]; L knee, ~50 uCi retro-orbital): 1 and 0.5
Inflammation Score ([2]; L knee, ~50 uCi retro-orbital): 5 and 3
Pannus Score ([2]; L knee, ~50 uCi retro-orbital): 1 and 0.5
Summed Histopathology Scores [2, 4]: 9 and 7.5
Bone Resorption Score [2, 4]: 1 and 0.5
Cartilage Damage Score [2, 4]: 2 and 1
Inflammation Score [2, 4]: 5
Pannus Score [2, 4]: 1
Cartilage Damage Score ([2]; R knee, ~50 uCi retro-orbital): 0.5
Pannus Score ([2]; R knee, ~50 uCi retro-orbital): 0.5
Effectiveness (in words) ([2]; administered directly into the synovium, second study): appears to be effective
Summed Histopathology Scores, Mean ([2]; mean of all animals, both knees, both routes): 7.04
Bone Resorption Score, Mean [2, 5]: 0.75
Cartilage Damage Score, Mean [2, 5]: 1.33
Inflammation Score, Mean [2, 5]: 4.04
Pannus Score, Mean [2, 5]: 0.92
